Reference: patent US20190361006A1, “METHOD OF PREDICTING CLINICAL OUTCOME OF ANTICANCER AGENTS” (MITRA RXDX, INC., priority 2017, published 2019)

Legend:
[1] = system: gastrointestinal stromal tumor; test: CD56+ NK cell tumor:stroma ratio by IHC in tumor tissue culture; type: cell-based, human; settings: Patient 1, gastrointestinal stromal tumor; control ratio 3
Procedure: The spatial heterogeneity of CD56+ lymphocytes (NK) in areas of tumor vs stroma in pairs of tissues (for control and treatment conditions) from each of a number of patients cultured in the tumor microenvironment platform and treated with various conventional and immuno-modulatory therapies was investigated. IHC analysis for CD56+ cells in slices of tissues under treatment and control conditions was performed, and the number of CD56+ cells in tumor and stromal regions was determined (FIG. 2A). M-score based on tumor-associated markers was determined for each of the tissue pairs as previously described. The ratio of CD56+ cells in areas of tumor cells vs areas of stroma in untreated and drug pressure conditions from the tissue pairs was calculated (FIG. 2B), and the fold change from vehicle to treatment conditions for each pair was determined and binned by M-score >25 and M-score ≤25 (FIG. 2C).
The predictive power of the change in spatial heterogeneity of CD56+NK cells in areas of tumor vs stroma under pressure from treatment with anticancer drug regimens was evaluated. […]

[2] = system: gastrointestinal stromal tumor; test: Known clinical outcome of the patient in response to the treatment; type: in vivo, human; settings: Patient 1, gastrointestinal stromal tumor
Procedure: (§1) The M-score based on tumor-associated markers and tumor:stroma ratio of CD56+ cells in tumor tissue cultures under control conditions or under pressure from treatment with anticancer drug regimens was determined as described above for 3 different patients whose clinical outcome in response to the respective treatment was known.

[3] = system: gastrointestinal stromal tumor; test: M-score (sensitivity index) from tumor-associated marker assays on tumor tissue culture; type: cell-based, human; settings: Patient 1, gastrointestinal stromal tumor
Procedure: The tumor tissue cultures were also evaluated using standard assays for tumor proliferation, tumor cell death, tumor morphology, and tumor cell viability as previously described, including tetrazolium salt WST-1 viability assay; LDH release; ATP uptake; glucose uptake; Caspase 3, Caspase 8, and Ki67 expression; and H&E staining. The results of the assays for tumor-associated markers were used to generate assessment scores that were input into a machine-trained algorithm to generate a clinical outcome predictor in the form of an “M-score” for each patient.
M-score based on tumor-associated markers was determined for each of the tissue pairs as previously described.
as §1

[4] = system: Human lung cancer sections; test: Patient-derived ex-vivo tumor explant culture on tumor microenvironment platform; H&E and IHC for cleaved caspase 3, MICA/B and CD56; type: cell-based; settings: cultured 72 hours in tumor microenvironment platform, IHC, FIG. 1
Procedure: The relevance of changes in the immune contexture of the tumor tissue culture microbed for a non-immunmodulatory agent, either as monotherapy or in combination with an immunomodulatory agent, was examined. Human lung cancer sections from the same patient cultured for 72 hours in the tumor microenvironment platform with gefitinib (a small molecule kinase inhibitor) alone, osimertinib (another small molecule kinase inhibitor)+Pembrolizumab, or vehicle control were assayed for H&E staining and cleaved caspase 3, MICA/B (cell surface ligands that bind immunoreceptors present on natural killer (NK) cells), and CD56 (marker of NK cells) expression.

SMILES	Treatment CD56+ tumor:stroma ratio [1]	Clinical response [2]	M-score [3]	M-score prediction [3]	Cleaved caspase 3 expression ([4]; vs vehicle control)	infiltration of NK cells (CD56) ([4]; vs vehicle-treated)	tumor cell MICA/B expression ([4]; vs vehicle-treated)
CC[C@@]1(O)C(=O)OCc2c1cc1n(c2=O)Cc2cc3c(CN(C)C)c(O)ccc3nc2-1 [topotecan]	5	Responder	(M-score = 36)	Responder	–	–	–
COc1cc2ncnc(Nc3ccc(F)c(Cl)c3)c2cc1OCCCN1CCOCC1 [gefitinib]	–	–	–	–	significantly increased	increase	increase
